Consider 11 compounds from ChEMBL document CHEMBL1201862, “PubChem BioAssay data set” (2004).

Molecules are shown by their SMILES.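 Tested at 5 concentrations; 48 h exposure; 96-well plates; endpoints linearly interpolated, else capped at highest concentration. The concentration for 50% growth inhibition is given as GI50.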 Calls of active or inactive are those of the source. Cut-off read from the data, not from the text of the source: active = GI50 up to about 1.1 µM and inactive = higher. Bounds are passed on as bounds.

Among the test systems are HCT-116; HOP-92; IGROV-1; K562; LOX IMVI; M14; Malme-3M; NCI-H226; NCI-H522; OVCAR-8; RXF 393; SF-539; SK-MEL-28; SK-MEL-2; SK-OV-3; SNB-19; SNB-75; UACC-62; RPMI-8226; SK-MEL-5.
Common to all, as to test: inhibition of tumour cell growth, NCI panel, 48 h

In the case of `Cc1cn(C2CC(O)C(CO)C2C)c(=O)[nH]c1=O` (stereo not drawn), the GI50 in the experiment with HCT-116, in the experiment with HOP-92, in the experiment on IGROV-1, in the experiment on K562, in the experiment on LOX IMVI and in the experiment on M14 was > 100 µM (inactive) in each case. The GI50 in the experiment on Malme-3M, in the experiment on NCI-H226, in the experiment with NCI-H522, with OVCAR-8, with RXF 393 and with SF-539 was > 100 µM (inactive) each time. Besides, the GI50 with SK-MEL-28, with SK-MEL-2, in the experiment on SK-OV-3, in the experiment on SNB-19, with SNB-75 and in the experiment on UACC-62 was > 100 µM (inactive) throughout.
As for `CSc1ncc2c(n1)sc1c(=O)n(-c3ccccc3)cnc12`, the GI50 with HCT-116, with HOP-92, in the experiment on IGROV-1, in the experiment with K562, in the experiment on LOX IMVI and with M14 was > 100 µM (inactive) each time. Further, the GI50 in the experiment on Malme-3M, in the experiment on NCI-H226, in the experiment with NCI-H522, in the experiment on OVCAR-8, in the experiment on RPMI-8226 and with RXF 393 was > 100 µM (inactive) in each case. The GI50 with SK-MEL-28, with SK-MEL-2, in the experiment with SK-MEL-5, in the experiment with SK-OV-3, with SNB-19 and in the experiment with SNB-75 was > 100 µM (inactive) throughout. The GI50 in the experiment on UACC-62 is > 100 µM (inactive).
For the compound `Cc1cc(C)c(C2=NO[C@@H]3C(=O)N(c4ccc(Cc5ccc(N6C(=O)[C@H]7C(c8c(C)cc(C)cc8C)=NO[C@H]7C6=O)cc5)cc4)C(=O)[C@H]23)c(C)c1`, the GI50 in the experiment on HOP-92 is > 100 µM (inactive); in the experiment on IGROV-1, > 100 µM (inactive); with K562, > 100 µM (inactive); in the experiment on LOX IMVI, > 100 µM (inactive); in the experiment on M14, 64.4 µM (inactive); in the experiment on Malme-3M it was > 100 µM (inactive). The GI50 with NCI-H226, in the experiment on OVCAR-8, in the experiment with RPMI-8226, in the experiment with RXF 393, in the experiment on SF-539 and in the experiment with SK-MEL-28 was > 100 µM (inactive) each time. Further, the GI50 with SK-MEL-2, with SK-MEL-5, in the experiment on SK-OV-3, in the experiment on SNB-75 and in the experiment on UACC-62 was > 100 µM (inactive) in each case.
For the compound `Cc1cc(C)n(-c2c(O)ccc(O)c2-n2nc(C)cc2C)n1`, the GI50 with HOP-92, in the experiment with IGROV-1, in the experiment with K562, with LOX IMVI, in the experiment on M14 and in the experiment on Malme-3M was > 100 µM (inactive) each time. In addition, the GI50 with NCI-H522, in the experiment on OVCAR-8, in the experiment on RPMI-8226, with RXF 393, with SF-539 and with SK-MEL-28 was > 100 µM (inactive) each time. Moreover, the GI50 with SK-MEL-2, in the experiment with SK-MEL-5, in the experiment on SK-OV-3, in the experiment on SNB-19, in the experiment on SNB-75 and with UACC-62 was > 100 µM (inactive) throughout.
On to `CCOC(=O)/C=C(\C)c1ccc(Cl)cc1`, for which the GI50 with HCT-116, with HOP-92, in the experiment with IGROV-1, with K562, in the experiment on LOX IMVI and in the experiment on M14 was > 100 µM (inactive) throughout. The GI50 in the experiment with Malme-3M was > 100 µM (inactive); with NCI-H226, 54.8 µM (inactive); in the experiment with OVCAR-8 it was > 100 µM (inactive); in the experiment on RPMI-8226, > 100 µM (inactive); in the experiment on RXF 393, > 100 µM (inactive); in the experiment with SF-539, > 100 µM (inactive). Besides, the GI50 in the experiment with SK-MEL-28, in the experiment with SK-MEL-2, with SNB-19 and in the experiment on SNB-75 was > 100 µM (inactive) each time.
For the compound `CC1=NC=C(O)c2ccccc2O1`, the GI50 with HCT-116, in the experiment on HOP-92, with IGROV-1, in the experiment with K562, with LOX IMVI and with M14 was > 100 µM (inactive) in each case. The GI50 in the experiment on Malme-3M, with OVCAR-8, with RPMI-8226, in the experiment on RXF 393, in the experiment with SF-539 and with SK-MEL-28 was > 100 µM (inactive) throughout. The GI50 in the experiment with SK-MEL-2, with SK-OV-3, in the experiment on SNB-19 and in the experiment on UACC-62 was > 100 µM (inactive) in each case.
Consider `CSc1cc(-c2cc3ccccc3o2)oc(=O)c1C#N`, for which the GI50 was > 100 µM (inactive) with HCT-116; 0.301 µM (active) in the experiment with HOP-92; 7.4 µM (inactive) with IGROV-1; > 100 µM (inactive) with K562; > 100 µM (inactive) with LOX IMVI; > 100 µM (inactive) with M14. Besides, the GI50 is 3.6 µM (inactive) in the experiment on Malme-3M; 0.165 µM (active) with NCI-H226; > 100 µM (inactive) with OVCAR-8; 27.7 µM (inactive) with RPMI-8226; 71.4 µM (inactive) in the experiment on RXF 393; > 100 µM (inactive) in the experiment on SF-539. For the same compound, the GI50 is > 100 µM (inactive) in the experiment with SK-MEL-28; > 100 µM (inactive) with SK-MEL-2; > 100 µM (inactive) with SK-MEL-5; 68.9 µM (inactive) with SNB-19; 16.3 µM (inactive) in the experiment with SNB-75.
As for `CCN(CC)/[N+]([O-])=N/OC`, the GI50 in the experiment with HCT-116, in the experiment with HOP-92, with IGROV-1, with K562, in the experiment with LOX IMVI and in the experiment with M14 was > 100 µM (inactive) throughout. In addition, the GI50 in the experiment with NCI-H226, in the experiment on NCI-H522, with OVCAR-8, in the experiment with RXF 393, in the experiment with SF-539 and with SK-MEL-28 was > 100 µM (inactive) in each case. Further, the GI50 in the experiment with SK-MEL-2, with SK-MEL-5, in the experiment on SK-OV-3, with SNB-19 and in the experiment with UACC-62 was > 100 µM (inactive) in each case.
As to `CN(CCCNc1ccc2ncn3c4ccccc4c(=O)c1c23)CCCN1C(=O)c2cccc3cc([N+](=O)[O-])cc(c23)C1=O`, the GI50 with HCT-116 was 0.00174 µM (active); with HOP-92, 1.04 µM (active); in the experiment on IGROV-1, 0.00948 µM (active); in the experiment on K562 it was 0.0201 µM (active); with LOX IMVI, 0.00771 µM (active); in the experiment with M14, 0.0481 µM (active). Further, the GI50 in the experiment on Malme-3M is 0.0244 µM (active); in the experiment on NCI-H226, 0.00603 µM (active); in the experiment with NCI-H522, 0.00775 µM (active); in the experiment with OVCAR-8, 0.0205 µM (active); in the experiment with RPMI-8226, 0.0132 µM (active); in the experiment with RXF 393, 0.0267 µM (active). In addition, the GI50 with SF-539 was 0.00548 µM (active); with SK-MEL-28 it was 1.12 µM (inactive); in the experiment with SK-MEL-2, 1.58 µM (inactive); in the experiment with SK-MEL-5, 0.01 µM (active); in the experiment with SK-OV-3, 1.28 µM (inactive); in the experiment with SNB-19, 0.0401 µM (active). The GI50 with SNB-75 is 0.018 µM (active).
Take `O=C1C(=O)c2ccccc2C=C1[N+](=O)[O-]`: the GI50 is 26.2 µM (inactive) in the experiment with HCT-116; 55.8 µM (inactive) with HOP-92; 13.8 µM (inactive) with IGROV-1; 53.5 µM (inactive) with K562; 25.8 µM (inactive) in the experiment on LOX IMVI; 71.1 µM (inactive) in the experiment on M14. For the same compound, the GI50 in the experiment on NCI-H226 is > 100 µM (inactive); in the experiment on NCI-H522 it was 34.9 µM (inactive); in the experiment on OVCAR-8 it was 33.7 µM (inactive); in the experiment with RPMI-8226 it was 31 µM (inactive); with RXF 393, 24.4 µM (inactive); with SF-539 it was 43.1 µM (inactive). Also, the GI50 with SK-MEL-28 is > 100 µM (inactive); with SK-MEL-2 it was 28.2 µM (inactive); in the experiment with SK-MEL-5, 17 µM (inactive); with SK-OV-3, > 100 µM (inactive); in the experiment with SNB-19 it was > 100 µM (inactive); with SNB-75, > 100 µM (inactive). Also, the GI50 with UACC-62 was 27.7 µM (inactive).
Take `C=C(C)C(=O)O[C@H]1CC2=C[C@@H](C[C@@]3(C)O[C@@H]3[C@H]3OC(=O)C(=C)[C@@H]31)OC2=O` [ELEPHANTOPIN]: the GI50 in the experiment with HCT-116 is 1.16 µM (inactive); with HOP-92, 1.13 µM (inactive); with IGROV-1, 4.65 µM (inactive); in the experiment on LOX IMVI, 0.31 µM (active); with Malme-3M, 2.12 µM (inactive); with NCI-H226, 10.2 µM (inactive). The GI50 in the experiment with NCI-H522 is 0.593 µM (active); with OVCAR-8, 0.505 µM (active); in the experiment with RXF 393, 0.369 µM (active); in the experiment on SF-539, 3.57 µM (inactive); in the experiment on SK-MEL-28 it was 1.71 µM (inactive); in the experiment with SK-MEL-2, 4.34 µM (inactive). Besides, the GI50 is 4.29 µM (inactive) in the experiment with SK-MEL-5; 11.5 µM (inactive) in the experiment on SK-OV-3; 13.3 µM (inactive) in the experiment on SNB-19; 7.98 µM (inactive) in the experiment with SNB-75; 3.5 µM (inactive) in the experiment on UACC-62.
